What all share (experiment): MTT assay
Format in all cases: cell-based, human
Background: Tetrazolium assays rely on reduction of a dye to a coloured formazan, in cell work by metabolically active cells.

In one test the test system is HepG2 (Liver). As to conditions: HepG2, 48 h; NA stands for Not Active. On the procedure:
(§1) Human cancer cell lines HepG2 (Liver), SK-MEL-1 (Skin), HT 018 (Colon), HeLa (Cervical), and MDA-MB 231 (Breast) were procured from the American Type Culture Collection (Rockville, MD, USA). MDA-MB-231 and HepG2 cell lines were maintained in DMEM; whereas SK-MEL-1, HeLa, and HT-018 were maintained in RPMI medium. The complete growth medium was supplemented with 10% (v/v) heat-inactivated FCS, 2 mM L-glutamine, and antimycotic-antibiotic solution. All of the cells were maintained in a standard culture condition of 37 °C temperature and 95% humidified atmosphere containing 5% CO2. Cells were screened periodically for mycoplasma contamination.
(§2) The novel complexes 1 and 2 were examined for their cytotoxicity against five different types of cancer cell lines viz., HepG2, SK-MEL-1, HT 018, HeLa, and MDA-MB 231 using a standard MTT reduction assay, according to Khan et al. (2012). Briefly, cells at a concentration of 1 × 10^6 cells/[…]/well were plated in 96-well plates and further grown in their respective medium containing 10% FCS. After 24 h, cells were incubated with 0–25 μM concentrations of test complexes or respective free ligands. Cells with 0.1% DMSO (vehicle control) and cisplatin (positive control) were also cultured under the same conditions. Cells only were used as negative control. Ensuing 48 h of incubation, old medium from treated cells was replaced with fresh medium. MTT reagent (5 mg/mL in PBS) was added to each well, and cells were further incubated for 2–3 h at 37 °C. After treatment, the supernatants were carefully removed, and 100 μL of DMSO was added to each well. Absorbance was measured at 620 nm in a multi-well plate reader, and drug sensitivity was expressed in terms of the concentration of drug required for a 50% reduction of cell viability (IC50).

Another test concerns HeLa (Cervical). As to conditions: 48 h, NA stands for Not Active. As for the experimental part:
as §1, §2

For another test, the system named is SK-MEL-1 (Skin). As to conditions: SK-MEL-1, 48 h; NA stands for Not Active. On the procedure:
as §1, §2

The subject of another test is HT018 (Colon). To be noted: HT018, 48 h; NA stands for Not Active. As for the experimental part: as §1, §2
The subject of a further test is MDA-MB 231 (Breast). To be noted: MDA-MB 231, 48 h; NA stands for Not Active. On the procedure:
as §1, §2

For orientation: IC50 means the midpoint of a concentration-inhibition curve.

Turning to `N.N.[Cl][Pt][Cl]` [Cisplatin, cisplatin, reference compound], the IC50 in the test with HepG2 (Liver) came to 6 ± 0.4 µM; with HeLa (Cervical) it was 6 ± 0.6 µM; in the test on SK-MEL-1 (Skin), 5.6 ± 0.8 µM; in the test on HT018 (Colon), 5.7 ± 0.2 µM; in the test on MDA-MB 231 (Breast), 3.1 ± 0.2 µM.

The values are drawn from article PMC5983663, “Design, Synthesis, and Biological Evaluation of Benzimidazole-Derived Biocompatible Copper(II) and Zinc(II) Complexes as Anticancer Chemotherapeutics” (International Journal of Molecular Sciences, 2018).
